Data as given in ChEMBL document CHEMBL3867484, “3D-QSAR studies of 3-(3,4-dihydroisoquinolin-2(1H)-ylsulfonyl)benzoic acids as AKR1C3 inhibitors: Highlight the importance of molecular docking in conformation generation” (Bioorg Med Chem Lett, 2016).

Biological target: T1, Aldo-keto reductase family 1 member C3 (Homo sapiens, UniProt P42330)
T1 sequence (P42330 whole entry): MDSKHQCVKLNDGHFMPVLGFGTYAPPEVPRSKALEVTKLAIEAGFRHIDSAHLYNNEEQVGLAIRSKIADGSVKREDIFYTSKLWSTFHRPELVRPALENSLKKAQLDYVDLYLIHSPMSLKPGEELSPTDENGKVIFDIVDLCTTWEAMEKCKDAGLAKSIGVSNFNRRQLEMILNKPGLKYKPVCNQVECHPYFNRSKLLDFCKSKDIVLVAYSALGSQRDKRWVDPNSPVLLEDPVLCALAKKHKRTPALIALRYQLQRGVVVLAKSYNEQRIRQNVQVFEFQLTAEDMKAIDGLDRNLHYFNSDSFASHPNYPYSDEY
Assay: Inhibition of human recombinant His-tagged AKR1C3 expressed in Escherichia coli BL21 (DE3) cells using 8-Acetyl-2,3,5,6-tetrahydro-1H,4H-11-oxa-3a-aza-benzo[de]anthracen-10-one as substrate after 1 hr in presence of NADPH by fluorescence assay

Row | SMILES | IC50 (read-out: pIC50 (converted)) | IC50 (read-out: IC50)
1 | O=C(O)[C@@H]1CCCN(S(=O)(=O)c2ccc3ccccc3c2)C1 | 31.6 nM | 
2 | O=C(O)c1cccc(S(=O)(=O)N2CCc3cc(Br)ccc3C2)c1 | 6.03 nM | 
3 | O=C(O)c1cccc(S(=O)(=O)C2CCc3sccc3C2)c1 (stereo not drawn) |  | 25 nM
4 | CN1CC(c2ccc(S(=O)(=O)N3CCc4ccccc4C3)cc2)CC1=O (stereo not drawn) |  | 42 nM
5 | O=C(NN1CCSCC1)c1cccc(S(=O)(=O)N2CCc3ccccc3C2)c1 |  | 450 nM

Second part, the molecule after the results:

Row | IC50 (read-out: pIC50 (converted)) | IC50 (read-out: IC50) | SMILES
6 |  | 390 nM | O=C(O)c1cccc(S(=O)(=O)C2CC=CCC2)c1 (stereo not drawn)
7 |  | 78 nM | O=C(NN1CCOCC1)c1cccc(S(=O)(=O)N2CCc3ccccc3C2)c1
8 |  | 1310 nM | O=C(O)c1cccc(S(=O)(=O)N2CCc3ccc(C#Cc4ccc(C(F)(F)F)cc4)cc3C2)c1
